Data as given in patent US6358698B1 (Acadia Pharmacueticals Inc., priority 1998, dated 2002).
Where two headings read alike, the source gives them in different places. Values belong to the compound of their own block, whether it stands above or below them.

Experiments:
human 5-HT2C receptor = molecular target: T1, human 5-HT2C receptor (Homo sapiens, UniProt P28335); assay: R-SAT functional assay, constitutively active wild type 5-HT2C receptor; type: cell-based; details: for EC50: read-out: 5-HT2C Receptor Negative Log EC50 (inverse agonism) (converted); for 5-HT2C Receptor Negative Log EC50 (inverse agonism): Table 3, 50 ng per well receptor DNA, assayed as agonists and inverse agonists
T1 construct: expressed in transfected cells; host or cells: not restated for 5-HT2C; R-SAT as for 5-HT2A (NIH 3T3)
T1 sequence (P28335 33-458): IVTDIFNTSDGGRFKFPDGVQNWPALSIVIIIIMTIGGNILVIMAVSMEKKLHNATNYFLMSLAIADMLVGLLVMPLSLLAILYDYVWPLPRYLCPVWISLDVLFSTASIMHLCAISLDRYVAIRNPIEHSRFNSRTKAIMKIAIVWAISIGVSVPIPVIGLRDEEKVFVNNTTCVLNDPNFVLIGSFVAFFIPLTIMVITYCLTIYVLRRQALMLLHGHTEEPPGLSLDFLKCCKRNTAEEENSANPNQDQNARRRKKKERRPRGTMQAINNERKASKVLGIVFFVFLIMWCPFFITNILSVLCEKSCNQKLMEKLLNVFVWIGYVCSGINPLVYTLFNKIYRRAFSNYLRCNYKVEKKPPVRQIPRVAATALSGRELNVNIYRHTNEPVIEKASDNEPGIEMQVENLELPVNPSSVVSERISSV

5-HT2A receptor = molecular target: T2, 5-HT2A receptor (Homo sapiens, UniProt P28223); assay: R-SAT functional assay, constitutively active wild type 5-HT2A receptor in NIH 3T3 cells; type: cell-based; details: for Negative LOG EC50 (inverse agonism, inhibition of constitutive activity): Table 2, molar negative log EC50, mean of three dose response experiments +/- standard error, 50 ng/well DNA
T2 construct: expressed in transfected cells; host or cells: NIH 3T3 (mouse fibroblast)
T2 sequence (P28223 whole entry): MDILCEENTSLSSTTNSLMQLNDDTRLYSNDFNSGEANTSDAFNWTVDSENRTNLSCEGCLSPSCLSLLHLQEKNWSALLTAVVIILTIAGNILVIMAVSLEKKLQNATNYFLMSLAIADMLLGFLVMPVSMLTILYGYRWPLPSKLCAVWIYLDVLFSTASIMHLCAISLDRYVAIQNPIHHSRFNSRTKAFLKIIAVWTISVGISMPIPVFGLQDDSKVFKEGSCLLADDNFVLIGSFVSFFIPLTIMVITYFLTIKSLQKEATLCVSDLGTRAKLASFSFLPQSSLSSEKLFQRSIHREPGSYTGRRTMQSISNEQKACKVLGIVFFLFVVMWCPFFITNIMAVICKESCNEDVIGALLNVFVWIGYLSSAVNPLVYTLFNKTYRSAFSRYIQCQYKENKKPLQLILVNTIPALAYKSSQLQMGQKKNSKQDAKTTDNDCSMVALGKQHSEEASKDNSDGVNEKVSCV

[1] = Table 3, 50 ng/well receptor DNA, read-out: 5-HT2A Receptor Negative Log EC50 (inverse agonism) (converted)
[2] = read-out: Negative LOG EC50 (inverse agonism, inhibition of constitutive activity) (converted)
[3] = compounds screened at 300-500 nM, 50 ng/well receptor DNA, inhibition from basal, referenced to ritanserin (90-100%), mean of duplicates
[4] = Table 3, 50 ng/well receptor DNA
[5] = compounds screened at 300-500 nM, 50 ng/well receptor DNA, […], mean of duplicates

Compound: N[C@@H](Cc1c[nH]c2ccc(O)cc12)C(=O)O [5-hydroxy-Ltryptophan]
- % INHIBITION (screen for inverse agonism at 5-HT2A receptors) (5-HT2A receptor; [3]): 53%

Compound: OCCN1CCN(CC/C=C2/c3ccccc3Sc3ccc(C(F)(F)F)cc32)CC1 [CIS-FLUPENTIXOL]
- 5-HT2C Receptor Negative Log EC50 (inverse agonism) (human 5-HT2C receptor): No Intrinsic
- Negative LOG EC50 (inverse agonism, inhibition of constitutive activity) (5-HT2A receptor): 8.04 +/− 0.10
- 5-HT2A Receptor Negative Log EC50 (inverse agonism) (5-HT2A receptor; [4]): 8.04 +/− 0.10
- % INHIBITION (screen for inverse agonism at 5-HT2A receptors) (5-HT2A receptor; [5]): 45%

Compound: CCN(CC)CCCN1c2ccccc2Sc2ccc(Cl)cc21 [Chlorproethizene]
- 5-HT2C Receptor Negative Log EC50 (inverse agonism) (human 5-HT2C receptor): <5.0
- 5-HT2A Receptor Negative Log EC50 (inverse agonism) (5-HT2A receptor; [4]): 7.70 +/− 0.33

Compound: CN1CCN(C2=Nc3ccccc3Sc3ccc(Cl)cc32)CC1 [Clothiapine]
- EC50 (human 5-HT2C receptor): 479 nM
- EC50 (5-HT2A receptor; [1]): 2.82 nM

Compound: CN1CCN(C2=Nc3ccccc3Oc3ccc(Cl)cc32)CC1 [LOXAPINE]
- EC50 (human 5-HT2C receptor): 501 nM

Compound: CSc1ccc2c(c1)C(N1CCN(C)CC1)Cc1ccccc1S2 (centres unmarked) [METHIOTHEPIN]
- % INHIBITION (screen for inverse agonism at 5-HT2A receptors) (5-HT2A receptor): 79%

Compound: CN1CCCCC1CCN1c2ccccc2Sc2ccc([S+](C)[O-])cc21 (centres unmarked) [Mesioridazine]
- 5-HT2C Receptor Negative Log EC50 (inverse agonism) (human 5-HT2C receptor): No Intrinsic
- 5-HT2A Receptor Negative Log EC50 (inverse agonism) (5-HT2A receptor; [4]): 7.00 +/− 0.30

Compound: CN1CCN(C2Cc3ccccc3Sc3ccc(Cl)cc32)CC1.O=C(O)/C=C\C(=O)O (centres unmarked) [OCTOCLOTHEPIN]
- 5-HT2A Receptor Negative Log EC50 (inverse agonism) (5-HT2A receptor; [4]): 9.74 +/− 0.98
- % INHIBITION (screen for inverse agonism at 5-HT2A receptors) (5-HT2A receptor; [5]): 76%

Compound: CN1CCN(C2=Nc3ccccc3Cc3ccccc32)CC1 [Perlapine]
- EC50 (human 5-HT2C receptor): 1290 nM
- EC50 (5-HT2A receptor; [1]): 30.2 nM

Compound: CN(C)CCCN1c2ccccc2Sc2ccccc21 [Promazine]
- 5-HT2C Receptor Negative Log EC50 (inverse agonism) (human 5-HT2C receptor): Agonist

Compound: CN(C)CCCN1c2ccccc2Sc2cccnc21 [Prothypendyl]
- 5-HT2C Receptor Negative Log EC50 (inverse agonism) (human 5-HT2C receptor): Agonist
- 5-HT2A Receptor Negative Log EC50 (inverse agonism) (5-HT2A receptor; [4]): 6.60 +/− 0.44

Compound: CCN1CCCC1CNC(=O)c1cc(S(N)(=O)=O)ccc1OC (centres unmarked) [Sulpiride]
- 5-HT2C Receptor Negative Log EC50 (inverse agonism) (human 5-HT2C receptor): No Intrinsic

Compound: O=C(CCCN1CCC(O)(c2cccc(C(F)(F)F)c2)CC1)c1ccc(F)cc1 [TRIFLUPERIDOL]
- EC50 (human 5-HT2C receptor): > 10000 nM
- EC50 (5-HT2A receptor; [1]): 25.7 nM
- EC50 (5-HT2A receptor; [2]): 25.7 nM

Compound: CN1CCN(CC/C=C2/c3ccccc3Sc3ccc(S(=O)(=O)N(C)C)cc32)CC1 [Thiothixene]
- 5-HT2C Receptor Negative Log EC50 (inverse agonism) (human 5-HT2C receptor): No Intrinsic

Compound: O=C1CC2(CCCC2)CC(=O)N1CCCCN1CCN(c2nsc3ccccc23)CC1 [Tiospirone]
- EC50 (human 5-HT2C receptor): 513 nM
- EC50 (5-HT2A receptor; [1]): 1.82 nM

Compound: OCCN1CCN(CC/C=C2\c3ccccc3Sc3ccc(C(F)(F)F)cc32)CC1 [Trans-Flupentixol]
- 5-HT2C Receptor Negative Log EC50 (inverse agonism) (human 5-HT2C receptor): 5.55 +/− 0.37
- Negative LOG EC50 (inverse agonism, inhibition of constitutive activity) (5-HT2A receptor): 6.77 +/− 0.21
- 5-HT2A Receptor Negative Log EC50 (inverse agonism) (5-HT2A receptor; [4]): 6.77 +/− 0.21

Second part, the compound after the results:

- EC50 (human 5-HT2C receptor): 5.25 nM
- EC50 (5-HT2A receptor; [1]): 0.955 nM
- EC50 (5-HT2A receptor; [2]): 0.955 nM
Compound: OCCN1CCN([C@@H]2C[C@@H](c3ccc(F)cc3)c3ccc(C(F)(F)F)cc32)CC1 (racemic) [Tefludazine]

- 5-HT2C Receptor Negative Log EC50 (inverse agonism) (human 5-HT2C receptor): No Intrinsic
- EC50 (5-HT2A receptor; [1]): 15.8 nM
Compound: CCNC(=O)N1CCN(CCCC(c2ccc(F)cc2)c2ccc(F)cc2)CC1 [Amperozide]

- 5-HT2C Receptor Negative Log EC50 (inverse agonism) (human 5-HT2C receptor): No Intrinsic
Compound: O=C(CCCN1CCC(O)(c2ccc(Br)cc2)CC1)c1ccc(F)cc1 [Bromperidol]

- 5-HT2C Receptor Negative Log EC50 (inverse agonism) (human 5-HT2C receptor): No Intrinsic
Compound: CC1CCN(CCCC(=O)c2ccc(F)cc2)CC1 [Melperone]

- 5-HT2C Receptor Negative Log EC50 (inverse agonism) (human 5-HT2C receptor): No Intrinsic
Compound: Cc1ccc(C2(O)CCN(CCCC(=O)c3ccc(F)cc3)CC2)cc1 [Moperone]

- % INHIBITION (screen for inverse agonism at 5-HT2A receptors) (5-HT2A receptor; [3]): 92%
Compound: Cc1nc2ccccn2c(=O)c1CCN1CCC(C(=O)c2ccc(F)cc2)CC1 [PIRENPIRONE]

- Functional character at 5-HT2A receptor (inhibits signaling below baseline) (5-HT2A receptor; PSI vector expression, in words): inverse agonist
Compound: Cc1nc2sccn2c(=O)c1CCN1CCC(=C(c2ccc(F)cc2)c2ccc(F)cc2)CC1 [RITANSERIN]

- 5-HT2C Receptor Negative Log EC50 (inverse agonism) (human 5-HT2C receptor): No Intrinsic
Compound: O=C(CCCN1CCC2(CC1)C(=O)NCN2c1ccccc1)c1ccc(F)cc1 [SPIPERONE]
